Data set [1] addresses tACEdelta36NJ (tACE, C domain) (Homo sapiens, UniProt P12821). The data set can be described thus: ACE inhibitory activity, fluorometric determination of phthaldialdehyde-derivatised His-Leu, tACE. The settings on record: for inhibitory activity for ACE as compared to lisinopril: in words; for Ki: substrate ZPHL, enzyme + inhibitor incubated 3 hours at ambient temperature. Format: biochemical. How it is done:
(§1) The ACE inhibitory activity (as tabulated in Table 1) was measured by the fluorometric determination of phthaldialdehyde-derivatised histidylleucine, a product of the enzyme reaction according to the method of Almquist et al.,^12 with some modifications. For tACEdelta36NJ and N-domain inhibition using Z-Phe-His-Leu as substrate:—10 μL of 0.05 mg/mL enzyme+120 μL inhibitor was incubated at ambient temperature for 3 hours. Inhibitor concentrations ranged from 2.0 μM to 500 μM. A 3.0 μL aliquot of this was assayed for enzyme activity using 30 μL of 1.0 mM […]. This was incubated (in triplicate) for 30 mins at 37° C. and stopped with 180 μL solution of 0.28N NaOH. To this alkalized mixture 12 μL of o-phthaldialdehyde (150 mM) was added and the mixture incubated for another 10 mins at room temperature. Reactions were stopped by adding 26 μL of 3N HCl. Fluorescence was measured at Ex=360 nm; Em=486 nm, 5×5 slit width along with a His-Leu standard calibration curve fluorometer: Varian Cary Eclipse plate reader.
(§2) All assays included enzyme incubated with buffer in the absence of inhibitor (i.e. 0 μM inhibitor concentration).

The target of a further data set is ACE N-domain (Homo sapiens, UniProt P12821). The data set can be described thus: ACE inhibitory activity, fluorometric determination of phthaldialdehyde-derivatised His-Leu, N-domain. Format: biochemical. To be noted: substrate ZPHL; enzyme + inhibitor incubated 3 hours at ambient temperature; read-out: Ki (N-dom) ZPHL. The method, then: as §1, §2
Chain of ACE N-domain (P12821 40-624 limits assumed): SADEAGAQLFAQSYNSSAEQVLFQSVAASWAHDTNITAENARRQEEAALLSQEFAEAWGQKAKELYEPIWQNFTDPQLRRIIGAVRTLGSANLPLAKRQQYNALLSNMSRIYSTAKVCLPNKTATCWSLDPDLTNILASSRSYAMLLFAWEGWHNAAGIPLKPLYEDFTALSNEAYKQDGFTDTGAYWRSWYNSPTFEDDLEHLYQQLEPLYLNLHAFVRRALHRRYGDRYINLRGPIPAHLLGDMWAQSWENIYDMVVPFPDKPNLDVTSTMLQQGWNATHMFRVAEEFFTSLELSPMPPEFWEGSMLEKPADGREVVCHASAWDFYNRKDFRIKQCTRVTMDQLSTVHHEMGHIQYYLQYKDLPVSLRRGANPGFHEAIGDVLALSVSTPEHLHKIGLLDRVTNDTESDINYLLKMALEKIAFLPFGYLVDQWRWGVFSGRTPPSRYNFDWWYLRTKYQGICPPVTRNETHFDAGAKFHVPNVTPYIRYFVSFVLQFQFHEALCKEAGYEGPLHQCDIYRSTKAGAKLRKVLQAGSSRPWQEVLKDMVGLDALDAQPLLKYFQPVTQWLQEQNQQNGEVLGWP

Molecules are shown by their SMILES.

Chain of tACEdelta36NJ (tACE, C domain) (P12821 642-1230 limits assumed): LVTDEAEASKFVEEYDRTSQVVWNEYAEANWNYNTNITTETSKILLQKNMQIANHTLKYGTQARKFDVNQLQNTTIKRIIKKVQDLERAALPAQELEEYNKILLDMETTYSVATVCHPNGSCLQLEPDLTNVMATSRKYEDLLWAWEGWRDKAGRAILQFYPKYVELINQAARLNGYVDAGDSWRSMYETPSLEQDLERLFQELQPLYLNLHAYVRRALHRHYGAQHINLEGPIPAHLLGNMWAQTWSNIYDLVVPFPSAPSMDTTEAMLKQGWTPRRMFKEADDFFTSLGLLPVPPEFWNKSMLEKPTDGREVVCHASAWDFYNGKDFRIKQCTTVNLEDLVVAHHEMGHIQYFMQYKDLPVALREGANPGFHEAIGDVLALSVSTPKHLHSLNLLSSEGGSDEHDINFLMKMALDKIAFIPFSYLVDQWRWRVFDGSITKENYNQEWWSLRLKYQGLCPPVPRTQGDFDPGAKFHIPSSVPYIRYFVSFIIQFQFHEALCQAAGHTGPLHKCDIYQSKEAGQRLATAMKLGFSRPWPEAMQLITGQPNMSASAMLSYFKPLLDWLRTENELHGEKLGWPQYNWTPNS

Regarding `O=C(N[C@@H](Cc1ccccc1)C(=O)CCC(=O)N1CCC[C@H]1C(=O)O)c1ccccc1` [Compound 5a, (5S)-5-[(N-benzoyl)amino]-4-oxo-6-phenyl-hexanoyl-L-proline], in data set [1], the “inhibitory activity for ACE as compared to lisinopril” value was “weak inhibitory activity”.
Regarding `O=C(CCC(=O)[C@H](Cc1ccccc1)NC(=O)c1ccccc1)N[C@@H](Cc1c[nH]c2ccccc12)C(=O)O` [Compound 5b, (5S)-5-[(N-benzoyl)amino]-4-oxo-6-phenyl-hexanoyl-L-tryptophan], the melting point lay in the range of 171 to 173 °C. The inhibition constant Ki at ACE N-domain is 196 µM. Also, in data set [1], the “inhibitory activity for ACE as compared to lisinopril” value is reported as “weak inhibitory activity” and the Ki worked out at 0.8 µM. Besides, the “C-domain specific (fold)” value in data set [1] (tACE (C domain) versus N-domain) was found to be 245 fold.
As for `O=C(CCC(=O)[C@H](Cc1ccccc1)NC(=O)c1ccccc1)N[C@@H](Cc1ccccc1)C(=O)O` [Compound 5c, (5S)-5-[(N-benzoyl)amino]-4-oxo-6-phenyl-hexanoyl-L-phenylalanine], the inhibition constant (Ki) on ACE N-domain was determined as 84.3 µM; in data set [1] it was 23.7 µM. For the same compound, the “inhibitory activity for ACE as compared to lisinopril” value in data set [1] is on record as “weak inhibitory activity”.
In the case of `CC(C)(C)OC(=O)N[C@@H](Cc1ccccc1)C(=O)CCC(=O)N1CCC[C@H]1C(=O)O` [Compound 11a, (5S)-6-phenyl-5-[(tert-butyloxycarbonyl)-amino]-4-oxo-hexanoyl-L-proline], the inhibition constant Ki at ACE N-domain worked out at 33.6 µM. Also, the “domain selectivity (in words)” value in data set [1] (N-domain versus tACE (C domain)) is “inhibits N-domain more effectively than tACE”. For the same compound, in data set [1], the “inhibitory activity for ACE as compared to lisinopril” value was “weak inhibitory activity” and the inhibition constant Ki was determined as 144 µM.
Turning to `CC(C)(C)OC(=O)N[C@@H](Cc1ccccc1)C(=O)CCC(=O)N[C@@H](Cc1c[nH]c2ccccc12)C(=O)O` [Compound 11b, (5S)-6-phenyl-5-[(tert-butyloxycarbonyl)-amino]-4-oxo-hexanoyl-L-tryptophan], the melting point was in the range of 141 to 143 °C.

One may read the Ki as the dissociation constant of the complex between target and ligand, obtained from inhibition or displacement. Usually melting point stands for the temperature of the solid-liquid transition.

Source of the values: patent US7951834B2, “Angiotensin I-converting enzyme (ACE) inhibitors” (University of Cape Town, priority 2005, dated 2011).
